Experimental data from patent US9169259B2, “Imidazopyridazine compounds” (Hoffmann-La Roche Inc., priority 2011, dated 2015).
Where a name gives a salt, the structure may show the parent alone.

biological target: recombinant human SYK360-635 (Homo sapiens (Human), UniProt P43405); assay: SYK kinase assay (33P ATP filtration, IC50 of SYK inhibition); type: biochemical; conditions: truncated SYK aa 360-635 0.5 nM, ATP 20 μM, peptide 5 μM, 30° C. 15 min; read-out: ENZYME_FILTRATION_IC50
Method: Determination of IC50 of Spleen Tyrosine Kinase (SYK) Inhibition:
SYK kinase assay is a standard kinase assay adapted to a 96 well plate format. This assay is performed in 96-well format for IC50 determination with […] which represented 10 half log dilutions and a 40 μL reaction volume. The assay measures the incorporation of radiolabeled ^33P γATP into an N-terminally biotinylated peptide substrate, derived from naturally occurring phosphoacceptor consensus sequence (Biotin-11aa DY*E). Phosphorylated products were detected upon termination of reactions with EDTA and the addition of Streptavidin coated beads.
Assay plates: 96-well MultiScreen 0.65 um filter plates (Millipore Cat. No.: MADVNOB10)
final concentration: 50 mM HEPES pH7.5
BSA: Bovine Serum Albumin Fraction V, fatty acid free (Roche Diagnostics GmbH, Cat. No. 9100221) diluted to a final concentration of 0.1%
Assay Dilution Buffer (ADB): 50 mM HEPES, 0.1 mM EGTA, 0.1 mM Na Vanadate, 0.1 mM β-glycerophosphate, 10 mM MgCl2, 1 mM DTT, 0.1% BSA, pH 7.5
Bead wash buffer: 10 g/L PBS (Phosphate buffered saline) with 2M NaCl+1% phosphoric acid.
DMSO and the mixture was incubated for 10 min at RT.
The kinase reaction was initiated by the addition of 10 μL 4× substrate cocktail containing the DYE peptide substrate [0 or 5 μM], ATP [20 μM] and ^33PγATP [2 μCi/r×n]. After incubation at 30° C. for 15 min, the reaction was terminated by the transfer of 25 μL of the reaction sample to a 96 well 0.65 μm Millipore MADVNOB membrane/plate containing 200 μL 5 mM EDTA and 20% Streptavidine coated beads in PBS.
After the last wash membrane/plates were transferred to an adaptor plate, heat dried for 15 min at 60° C., and 50 μL scintillation cocktail was added to each well and 4 h later the amount of radioactivity was counted in a top counter.

Question: With `CC1CC(C)CN(c2cccc(Nc3cc(-c4cccc(C(=O)O)c4)nn4ccnc34)n2)C1` (stereo not shown) [Example I-38, 3-[8-(3,5-Dimethyl-3,4,5,6-tetrahydro-2H-[1,2′]bipyridinyl-6′-ylamino)-imidazo[1,2-b]pyridazin-6-yl]-benzoic acid] as the compound, how does the IC50 read?
Answer: 904 nM

Question: Which IC50 does the source give for `CC1CCCN1c1cccc(Nc2cc(-c3cccc(C#N)c3)nn3ccnc23)n1` (stereo not shown) [Example I-80, 3-{8-[6-(2-Methyl-pyrrolidin-1-yl)-pyridin-2-ylamino]-imidazo[1,2-b]pyridazin-6-yl}-benzonitrile] here?
Answer: 614 nM

Question: For `CC1CCCN1c1cccc(Nc2cc(-c3cccc(O)c3)nn3ccnc23)n1` (stereo not shown) [Example I-86, 3-{8-[6-(2-Methyl-pyrrolidin-1-yl)-pyridin-2-ylamino]-imidazo[1,2-b]pyridazin-6-yl}-phenol], which IC50 is on record?
Answer: 102 nM

Question: How did the IC50 turn out when `CC1CCCN1c1cccc(Nc2cc(-c3ccc(F)cc3)nn3ccnc23)n1` (stereo not shown) [Example I-79, [6-(4-Fluoro-phenyl)-imidazo[1,2-b]pyridazin-8-yl]-[6-(2-methyl-pyrrolidin-1-yl)-pyridin-2-yl]-amine] was run?
Answer: 488 nM

Question: `COc1cccc(-c2cc(Nc3cccc(N4CCCC4C)n3)c3nccn3n2)c1` (stereo not shown) [Example I-39, [6-(3-Methoxy-phenyl)-imidazo[1,2-b]pyridazin-8-yl]-[6-(2-methyl-pyrrolidin-1-yl)-pyridin-2-yl]-amine] was tested. Which IC50 did it give?
Answer: 292 nM

Question: Which IC50 does the source give for `CC1(C)CCN(c2cccc(Nc3cc(-c4cccc(C(=O)O)c4)nn4ccnc34)n2)CC1` [Example I-61, 3-[8-(4,4-Dimethyl-3,4,5,6-tetrahydro-2H-[1,2′]bipyridinyl-6′-ylamino)-imidazo[1,2-b]pyridazin-6-yl]-benzoic acid] here?
Answer: 1380 nM

Question: How did the IC50 turn out when `CC1(C)CCN(c2cccc(Nc3cc(-c4ccccc4)nn4ccnc34)n2)C1` [Example I-34, [6-(3,3-Dimethyl-pyrrolidin-1-yl)-pyridin-2-yl]-(6-phenyl-imidazo[1,2-b]pyridazin-8-yl)-amine] was run?
Answer: 1050 nM

Question: For `COc1ccc(-c2cc(Nc3cccc(N4CCCC4C)n3)c3nccn3n2)cc1OC` (stereo not shown) [Example I-62, [6-(3,4-Dimethoxy-phenyl)-imidazo[1,2-b]pyridazin-8-yl]-[6-(2-methyl-pyrrolidin-1-yl)-pyridin-2-yl]-amine], which IC50 is on record?
Answer: 306 nM

Question: How did the IC50 turn out when `COc1ccc(Nc2cc(N3CCC(NC(=O)c4ccc(C(=O)O)cc4)C3)nn3ccnc23)nc1OC` (stereo not shown) [Example I-76, N-{1-[8-(5,6-Dimethoxy-pyridin-2-ylamino)-imidazo[1,2-b]pyridazin-6-yl]-pyrrolidin-3-yl}-terephthalamic acid] was run?
Answer: 42.1 nM

Question: `COc1ccc(Nc2cc(N3CCCC(C(=O)Nc4ccc(C(=O)O)cc4)C3)nn3ccnc23)nc1OC` (stereo not shown) [Example I-74, 4-({1-[8-(5,6-Dimethoxy-pyridin-2-ylamino)-imidazo[1,2-b]pyridazin-6-yl]-piperidine-3-carbonyl}-amino)-benzoic acid] was tested. Which IC50 did it give?
Answer: 14.9 nM

Question: How did the IC50 turn out when `CC1CCN(c2cccc(Nc3cc(-c4ccccc4)nn4ccnc34)n2)C1` (stereo not shown) [Example I-25, [6-(3-Methyl-pyrrolidin-1-yl)-pyridin-2-yl]-(6-phenyl-imidazo[1,2-b]pyridazin-8-yl)-amine] was run?
Answer: 88.5 nM

Question: With `CC1CCCN1c1cccc(Nc2cc(-c3cccc(OCCN4CCOCC4)c3)nn3ccnc23)n1` (stereo not shown) [Example I-88, [6-(2-Methyl-pyrrolidin-1-yl)-pyridin-2-yl]-{6-[3-(2-morpholin-4-yl-ethoxy)-phenyl]-imidazo[1,2-b]pyridazin-8-yl}-amine] as the compound, how does the IC50 read?
Answer: 51 nM

Question: Which IC50 does the source give for `CC1CCCN1c1cccc(Nc2cc(-c3ccc(C(C)(C)C)cc3)nn3ccnc23)n1` (stereo not shown) [Example I-85, [6-(4-tert-Butyl-phenyl)-imidazo[1,2-b]pyridazin-8-yl]-[6-(2-methyl-pyrrolidin-1-yl)-pyridin-2-yl]-amine] here?
Answer: 610 nM

Question: How did the IC50 turn out when `CNC(=O)c1ccc(NC(=O)c2cccc(-c3cc(Nc4ccc(OC)c(OC)n4)c4nccn4n3)c2)cc1` [Example I-96, 3-(8-(5,6-Dimethoxypyridin-2-ylamino)imidazo[1,2-b]pyridazin-6-yl)-N-(4-(methylcarbamoyl)phenyl)benzamide] was run?
Answer: 103 nM

Question: Which IC50 does the source give for `O=C(O)c1cccc(-c2cc(Nc3cccc(N4CCCC4)n3)c3nccn3n2)c1` [Example I-22, 3-[8-(6-Pyrrolidin-1-yl-pyridin-2-ylamino)-imidazo[1,2-b]pyridazin-6-yl]-benzoic acid hydrochloride] here?
Answer: 434 nM

Question: How did the IC50 turn out when `CC1CCCN1c1cccc(Nc2cc(-c3ccc(O)cc3)nn3ccnc23)n1` (stereo not shown) [Example I-77, 4-{8-[6-(2-Methyl-pyrrolidin-1-yl)-pyridin-2-ylamino]-imidazo[1,2-b]pyridazin-6-yl}-phenol] was run?
Answer: 63.9 nM

Question: With `CC1(C)CCN(c2cccc(Nc3cc(-c4cccc(C(=O)O)c4)nn4ccnc34)n2)C1` [Example I-59, 3-{8-[6-(3,3-Dimethyl-pyrrolidin-1-yl)-pyridin-2-ylamino]-imidazo[1,2-b]pyridazin-6-yl}-benzoic acid] as the compound, how does the IC50 read?
Answer: 599 nM

Question: For `COc1ccc(Nc2cc(-c3cccc(C(=O)O)c3)nn3ccnc23)nc1OC` [Example I-95, 3-[8-(5,6-Dimethoxy-pyridin-2-ylamino)-imidazo[1,2-b]pyridazin-6-yl]-benzoic acid], which IC50 is on record?
Answer: 949 nM

Question: How did the IC50 turn out when `CC1CCCN1c1cccc(Nc2cc(-c3cccc(C(=O)N4CCOCC4)c3)nn3ccnc23)n1` (stereo not shown) [Example I-42, (3-{8-[6-(2-Methyl-pyrrolidin-1-yl)-pyridin-2-ylamino]-imidazo[1,2-b]pyridazin-6-yl}-phenyl)-morpholin-4-yl-methanone] was run?
Answer: 219 nM

Question: Which IC50 does the source give for `COc1ccc(Nc2cc(N3CCC(C(=O)Nc4ccc(C(=O)O)cc4)C3)nn3ccnc23)nc1OC` (stereo not shown) [Example I-75, 4-({1-[8-(5,6-Dimethoxy-pyridin-2-ylamino)-imidazo[1,2-b]pyridazin-6-yl]-pyrrolidine-3-carbonyl}-amino)-benzoic acid] here?
Answer: 461 nM

Question: How did the IC50 turn out when `CC(C)(C)C1CCN(c2cccc(Nc3cc(-c4cccc(C(=O)O)c4)nn4ccnc34)n2)C1` (stereo not shown) [Example I-66, 3-{8-[6-(3-tert-Butyl-pyrrolidin-1-yl)-pyridin-2-ylamino]-imidazo[1,2-b]pyridazin-6-yl}-benzoic acid] was run?
Answer: 696 nM

Question: How did the IC50 turn out when `C[C@H]1CCCN1c1cccc(Nc2cc(-c3ccc4ncsc4c3)nn3ccnc23)n1` [Example I-52, (6-Benzothiazol-6-yl-imidazo[1,2-b]pyridazin-8-yl)-[6-((S)-2-methyl-pyrrolidin-1-yl)-pyridin-2-yl]-amine] was run?
Answer: 36.1 nM

Question: For `Cc1ccccc1-c1cc(Nc2cccc(N3CCCC3C)n2)c2nccn2n1` (stereo not shown) [Example I-47, [6-(2-Methyl-pyrrolidin-1-yl)-pyridin-2-yl]-(6-o-tolyl-imidazo[1,2-b]pyridazin-8-yl)-amine], which IC50 is on record?
Answer: 159 nM

Question: How did the IC50 turn out when `CC(=O)N1CCc2ccc(-c3cc(Nc4cccc(N5CCCC5C)n4)c4nccn4n3)cc2C1` (stereo not shown) [Example I-64, 1-(7-{8-[6-(2-Methyl-pyrrolidin-1-yl)-pyridin-2-ylamino]-imidazo[1,2-b]pyridazin-6-yl}-3,4-dihydro-1H-isoquinolin-2-yl)-ethanone] was run?
Answer: 56.6 nM

Question: `CC1CCCN1c1cccc(Nc2cc(-c3ccc4cn[nH]c4c3)nn3ccnc23)n1` (stereo not shown) [Example I-19, [6-(1H-Indazol-6-yl)-imidazo[1,2-b]pyridazin-8-yl]-[6-(2-methyl-pyrrolidin-1-yl)-pyridin-2-yl]-amine] was tested. Which IC50 did it give?
Answer: 75 nM

Question: `CC1CCC(C)N1c1cccc(Nc2cc(-c3cccc(C(=O)O)c3)nn3ccnc23)n1` (stereo not shown) [Example I-60, 3-{8-[6-(2,5-Dimethyl-pyrrolidin-1-yl)-pyridin-2-ylamino]-imidazo[1,2-b]pyridazin-6-yl}-benzoic acid] was tested. Which IC50 did it give?
Answer: 231 nM

Question: How did the IC50 turn out when `CCc1ccc(Nc2cc(-c3ccccc3)nn3ccnc23)nc1` [Example I-2, (5-Ethyl-pyridin-2-yl)-(6-phenyl-imidazo[1,2-b]pyridazin-8-yl)-amine] was run?
Answer: 186 nM

Question: `COc1ccc(Nc2cc(N3CCCC(NC(=O)c4ccc(C(=O)O)cc4)C3)nn3ccnc23)nc1OC` (stereo not shown) [Example I-72, N-{1-[8-(5,6-Dimethoxy-pyridin-2-ylamino)-imidazo[1,2-b]pyridazin-6-yl]-piperidin-3-yl}-terephthalamic acid] was tested. Which IC50 did it give?
Answer: 2.2 nM

Question: Which IC50 does the source give for `CC1CCCN1c1cccc(Nc2cc(-c3cccc(CN4CCCC4)c3)nn3ccnc23)n1` (stereo not shown) [Example I-70, [6-(2-Methyl-pyrrolidin-1-yl)-pyridin-2-yl]-[6-(3-pyrrolidin-1-ylmethyl-phenyl)-imidazo[1,2-b]pyridazin-8-yl]-amine] here?
Answer: 60.8 nM

Question: Which IC50 does the source give for `CC1CCCN1c1cccc(Nc2cc(-c3cccnc3)nn3ccnc23)n1` (stereo not shown) [Example I-78, [6-(2-Methyl-pyrrolidin-1-yl)-pyridin-2-yl]-(6-pyridin-3-yl-imidazo[1,2-b]pyridazin-8-yl)-amine] here?
Answer: 65.2 nM

Question: For `CC1CCCN1c1cccc(Nc2cc(-c3ccc(OCCN4CCOCC4)cc3)nn3ccnc23)n1` (stereo not shown) [Example I-90, [6-(2-Methyl-pyrrolidin-1-yl)-pyridin-2-yl]-{6-[4-(2-morpholin-4-yl-ethoxy)-phenyl]-imidazo[1,2-b]pyridazin-8-yl}-amine], which IC50 is on record?
Answer: 157 nM
